# According to patent US20220187282A1, “CARDIOMYOCYTE PROLIFERATION” (The Council of the Queensland Institute of Medical Research, priority 2019, published 2022):
# Where two headings read alike, the source gives them in different places.
# Legend:
# Assay type in all cases: biochemical
# kinases [1] = molecular target: kinases (Homo sapiens, UniProt O00329); conditions: PIK3CD/PIK3R1 FRET-Adapta SP; Test Conc(μM):ATP Conc(μM) 1:75
# kinases [2] = molecular target: kinases (Homo sapiens, UniProt O14757); conditions: CHEK1 (CHK1) FRET-Z-Lyte SP; Test Conc(μM):ATP Conc(μM) 1:50
# kinases [3] = molecular target: kinases (Homo sapiens, UniProt O43293); conditions: DAPK3 (ZIPK) FRET-Z-Lyte SP; Test Conc(μM):ATP Conc(μM) 1:5
# kinases [4] = molecular target: kinases (Homo sapiens, UniProt O95835); conditions: LATS1 FRET-Lantha SP; Test Conc(μM) 1
# kinases [5] = molecular target: kinases (Homo sapiens, UniProt O96013); conditions: PAK4 FRET-Z-Lyte SP; Test Conc(μM):ATP Conc(μM) 1:5
# kinases [6] = molecular target: kinases (Homo sapiens, UniProt P25098); conditions: ADRBK1 (GRK2) FRET-Z-Lyte SP; Test Conc(μM):ATP Conc(μM) 1:10
# kinases [7] = molecular target: kinases (Homo sapiens, UniProt P27448); conditions: MARK3 FRET-Z-Lyte SP; Test Conc(μM):ATP Conc(μM) 1:5
# kinases [8] = molecular target: kinases (Homo sapiens, UniProt P29323); conditions: EPHB2 FRET-Z-Lyte SP; Test Conc(μM):ATP Conc(μM) 1:75
# kinases [9] = molecular target: kinases (Homo sapiens, UniProt P43403); conditions: ZAP70 *Mn* FRET-Z-Lyte SP; Test Conc(μM):ATP Conc(μM) 1:5
# kinases [10] = molecular target: kinases (Homo sapiens, UniProt P53350); conditions: PLK1 FRET-Z-Lyte SP; Test Conc(μM):ATP Conc(μM) 1:10
# kinases [11] = molecular target: kinases (Homo sapiens, UniProt P53355); conditions: DAPK1 FRET-Adapta SP; Test Conc(μM):ATP Conc(μM) 1:5
# kinases [12] = molecular target: kinases (Homo sapiens, UniProt P53671); conditions: LIMK2 FRET-Lantha SP; Test Conc(μM) 1
# kinases [13] = molecular target: kinases (Homo sapiens, UniProt P68400); conditions: CSNK2A1 (CK2alpha1) Z-Lyte SP; Test Conc(μM):ATP Conc(μM) 1:5
# kinases [14] = molecular target: kinases (Homo sapiens, UniProt Q02750)
# kinases [15] = molecular target: kinases (Homo sapiens, UniProt Q05397); conditions: PTK2 (FAK) FRET-Z-Lyte SP; Test Conc(μM):ATP Conc(μM) 1:50
# kinases [16] = molecular target: kinases (Homo sapiens, UniProt Q13131)
# kinases [17] = molecular target: kinases (Homo sapiens, UniProt Q13153); conditions: PAK1 FRET-Z-Lyte SP; Test Conc(μM):ATP Conc(μM) 1:50
# kinases [18] = molecular target: kinases (Homo sapiens, UniProt Q13237); conditions: PRKG2 (PKG2) FRET-Z-Lyte SP; Test Conc(μM):ATP Conc(μM) 1:150
# kinases [19] = molecular target: kinases (Homo sapiens, UniProt Q15746); conditions: MYLK (MLCK) FRET-Lantha SP; Test Conc(μM) 1
# kinases [20] = molecular target: kinases (Homo sapiens, UniProt Q15835); conditions: GRK1 FRET-Lantha SP; Test Conc(μM) 1
# kinases [21] = molecular target: kinases (Homo sapiens, UniProt Q16513); conditions: PKN2 (PRK2) FRET-lantha SP; Test Conc(μM) 1
# kinases [22] = molecular target: kinases (Homo sapiens, UniProt Q96SB4); conditions: SRPK1 FRET-Z-Lyte SP; Test Conc(μM):ATP Conc(μM) 1:25
# kinases [23] = molecular target: kinases (Homo sapiens, UniProt Q99759); conditions: MAP3K3 (MEKK3) FRET-Lantha SP; Test Conc(μM) 1
# kinases [24] = molecular target: kinases (Homo sapiens, UniProt Q9BWU1); conditions: Test Conc(μM) 1
# kinases [25] = molecular target: kinases (Homo sapiens, UniProt Q9H093); conditions: NUAK2 FRET-Lantha SP; Test Conc(μM) 1
# kinases [26] = molecular target: kinases (Homo sapiens, UniProt Q9H2K8); conditions: TAOK3 (JIK) FRET-Lantha SP; Test Conc(μM) 1
# kinases [27] = molecular target: kinases (Homo sapiens, UniProt Q9H3Y6); conditions: SRMS (Srm) FRET-Z-Lyte SP; Test Conc(μM):ATP Conc(μM) 1:150
# kinases [28] = molecular target: kinases (Homo sapiens, UniProt Q9Y4K4); conditions: MAP4K5 (KHS1) FRET-Z-Lyte SP; Test Conc(μM):ATP Conc(μM) 1:50
# [29] = MAP2K1 (MEK1) FRET-Lantha SP, Test Conc(μM) 1
# [30] = MAP2K1 (MEK1)Cascade Z-Lyte SP, Test Conc(μM):ATP Conc(μM) 1:100
# [31] = AMPK (A1/B1/G2) FRET-Lantha SP, Test Conc(μM) 1
# [32] = AMPK (A1/B1/G3) FRET-Lantha SP, Test Conc(μM) 1
# [33] = AMPK (A1/B2/G1) FRET-Lantha SP, Test Conc(μM) 1
# [34] = AMPK A1/B1/G1 FRET-Z-lyte SP, Test Conc(μM):ATP Conc(μM) 1:50
# [35] = AMPK A1/B2/G2 FRET-Z-Lyte SP, Test Conc(μM):ATP Conc(μM) 1:10
# [36] = AMPK A1/B2/G3 FRET-Z-Lyte SP, Test Conc(μM):ATP Conc(μM) 1:10
# kinases (Homo sapiens, UniProt Q02750), sequence (Q02750 whole entry): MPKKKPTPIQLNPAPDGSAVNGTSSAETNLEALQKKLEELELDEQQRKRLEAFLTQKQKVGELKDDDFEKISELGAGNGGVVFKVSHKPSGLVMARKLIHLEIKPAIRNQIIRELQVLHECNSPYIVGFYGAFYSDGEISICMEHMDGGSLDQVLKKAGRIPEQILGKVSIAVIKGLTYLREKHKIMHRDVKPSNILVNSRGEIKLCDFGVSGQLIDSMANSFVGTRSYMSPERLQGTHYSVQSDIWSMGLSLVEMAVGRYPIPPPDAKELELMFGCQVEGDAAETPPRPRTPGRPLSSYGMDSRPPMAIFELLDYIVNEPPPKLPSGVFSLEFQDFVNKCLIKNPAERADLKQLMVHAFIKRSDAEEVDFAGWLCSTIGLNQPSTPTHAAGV
# kinases (Homo sapiens, UniProt Q13131), sequence (Q13131 whole entry): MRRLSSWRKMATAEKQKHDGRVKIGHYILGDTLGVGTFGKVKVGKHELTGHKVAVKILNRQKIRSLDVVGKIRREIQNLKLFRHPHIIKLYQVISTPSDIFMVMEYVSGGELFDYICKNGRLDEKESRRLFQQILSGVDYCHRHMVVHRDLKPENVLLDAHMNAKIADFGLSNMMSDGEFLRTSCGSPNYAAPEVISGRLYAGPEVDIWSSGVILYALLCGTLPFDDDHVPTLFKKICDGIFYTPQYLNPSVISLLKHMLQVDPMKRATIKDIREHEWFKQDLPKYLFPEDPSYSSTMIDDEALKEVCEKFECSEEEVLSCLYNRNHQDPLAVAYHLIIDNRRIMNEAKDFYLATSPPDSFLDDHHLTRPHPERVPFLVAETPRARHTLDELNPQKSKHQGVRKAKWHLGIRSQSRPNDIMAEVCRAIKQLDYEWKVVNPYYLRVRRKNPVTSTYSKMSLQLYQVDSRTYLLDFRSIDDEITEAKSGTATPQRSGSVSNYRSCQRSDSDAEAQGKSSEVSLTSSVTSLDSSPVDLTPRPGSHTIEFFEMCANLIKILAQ
# kinases (Homo sapiens, UniProt Q9BWU1), sequence (Q9BWU1 whole entry): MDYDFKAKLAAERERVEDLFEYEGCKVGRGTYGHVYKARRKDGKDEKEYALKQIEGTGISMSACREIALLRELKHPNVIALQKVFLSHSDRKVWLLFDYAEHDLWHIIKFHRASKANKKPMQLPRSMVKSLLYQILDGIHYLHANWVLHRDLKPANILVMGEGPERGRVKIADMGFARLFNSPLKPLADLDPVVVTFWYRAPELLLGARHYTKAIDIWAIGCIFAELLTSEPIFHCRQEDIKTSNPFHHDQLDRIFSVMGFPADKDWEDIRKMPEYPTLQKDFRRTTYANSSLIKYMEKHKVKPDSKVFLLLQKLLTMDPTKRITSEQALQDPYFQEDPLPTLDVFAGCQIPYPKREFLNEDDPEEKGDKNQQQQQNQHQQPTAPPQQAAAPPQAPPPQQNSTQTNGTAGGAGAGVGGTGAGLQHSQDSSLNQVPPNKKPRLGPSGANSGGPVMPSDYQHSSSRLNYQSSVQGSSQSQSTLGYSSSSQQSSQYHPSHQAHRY
# kinases (Homo sapiens, UniProt O14757), sequence (O14757 whole entry): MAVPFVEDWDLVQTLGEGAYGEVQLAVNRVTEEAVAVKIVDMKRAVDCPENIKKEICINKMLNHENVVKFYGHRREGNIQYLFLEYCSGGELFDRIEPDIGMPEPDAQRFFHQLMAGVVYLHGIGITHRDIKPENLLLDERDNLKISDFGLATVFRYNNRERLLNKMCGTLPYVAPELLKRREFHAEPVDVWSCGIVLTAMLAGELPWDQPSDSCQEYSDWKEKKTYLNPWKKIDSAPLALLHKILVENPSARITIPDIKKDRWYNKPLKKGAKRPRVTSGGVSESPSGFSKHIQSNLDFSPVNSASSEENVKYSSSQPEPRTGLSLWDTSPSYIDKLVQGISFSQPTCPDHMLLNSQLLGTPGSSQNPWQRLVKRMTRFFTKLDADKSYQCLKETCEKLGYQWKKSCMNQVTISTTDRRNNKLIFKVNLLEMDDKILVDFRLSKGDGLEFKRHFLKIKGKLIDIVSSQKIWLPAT
# kinases (Homo sapiens, UniProt Q9H093), sequence (Q9H093 whole entry): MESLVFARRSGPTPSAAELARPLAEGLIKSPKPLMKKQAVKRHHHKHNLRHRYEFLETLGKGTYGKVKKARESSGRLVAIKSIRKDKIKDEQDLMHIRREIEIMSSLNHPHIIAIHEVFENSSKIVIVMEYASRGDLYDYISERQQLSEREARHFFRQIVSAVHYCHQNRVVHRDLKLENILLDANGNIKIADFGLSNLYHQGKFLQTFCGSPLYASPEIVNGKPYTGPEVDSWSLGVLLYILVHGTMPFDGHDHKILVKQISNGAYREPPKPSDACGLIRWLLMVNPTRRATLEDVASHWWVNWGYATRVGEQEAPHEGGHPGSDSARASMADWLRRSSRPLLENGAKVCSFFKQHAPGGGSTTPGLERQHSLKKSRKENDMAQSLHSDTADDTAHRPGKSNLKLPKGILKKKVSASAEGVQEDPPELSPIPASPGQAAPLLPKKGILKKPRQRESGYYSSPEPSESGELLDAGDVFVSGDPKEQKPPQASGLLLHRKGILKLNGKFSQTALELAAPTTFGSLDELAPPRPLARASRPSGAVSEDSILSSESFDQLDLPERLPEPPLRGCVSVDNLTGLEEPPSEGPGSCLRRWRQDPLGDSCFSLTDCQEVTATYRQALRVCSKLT
# kinases (Homo sapiens, UniProt P29323), sequence (P29323 19-1055): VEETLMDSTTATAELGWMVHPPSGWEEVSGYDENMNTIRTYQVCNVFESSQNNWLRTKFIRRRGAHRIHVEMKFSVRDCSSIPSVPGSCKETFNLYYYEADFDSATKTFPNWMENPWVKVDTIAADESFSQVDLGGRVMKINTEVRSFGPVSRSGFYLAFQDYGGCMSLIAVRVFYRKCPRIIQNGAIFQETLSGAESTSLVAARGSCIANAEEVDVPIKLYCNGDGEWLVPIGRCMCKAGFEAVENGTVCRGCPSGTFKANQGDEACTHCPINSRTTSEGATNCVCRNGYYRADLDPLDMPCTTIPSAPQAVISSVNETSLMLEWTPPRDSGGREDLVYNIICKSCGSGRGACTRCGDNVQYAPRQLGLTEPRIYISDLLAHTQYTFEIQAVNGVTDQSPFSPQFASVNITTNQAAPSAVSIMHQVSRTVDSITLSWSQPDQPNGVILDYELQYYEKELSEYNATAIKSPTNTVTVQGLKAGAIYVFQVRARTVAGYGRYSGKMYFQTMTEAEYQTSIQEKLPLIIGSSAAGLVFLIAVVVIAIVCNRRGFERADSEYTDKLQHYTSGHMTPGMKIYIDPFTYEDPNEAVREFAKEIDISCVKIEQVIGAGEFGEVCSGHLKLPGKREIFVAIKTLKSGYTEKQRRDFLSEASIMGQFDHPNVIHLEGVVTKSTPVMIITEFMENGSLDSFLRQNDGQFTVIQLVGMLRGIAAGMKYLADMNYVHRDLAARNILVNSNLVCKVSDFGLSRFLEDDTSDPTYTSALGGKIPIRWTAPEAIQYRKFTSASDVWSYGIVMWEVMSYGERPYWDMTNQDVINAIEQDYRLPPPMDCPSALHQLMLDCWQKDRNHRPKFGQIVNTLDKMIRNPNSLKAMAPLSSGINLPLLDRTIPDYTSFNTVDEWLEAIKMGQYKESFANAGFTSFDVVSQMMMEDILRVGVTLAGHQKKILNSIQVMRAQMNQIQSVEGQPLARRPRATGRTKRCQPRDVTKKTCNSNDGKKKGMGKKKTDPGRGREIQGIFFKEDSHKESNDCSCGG
# kinases (Homo sapiens, UniProt O00329), sequence (O00329 whole entry): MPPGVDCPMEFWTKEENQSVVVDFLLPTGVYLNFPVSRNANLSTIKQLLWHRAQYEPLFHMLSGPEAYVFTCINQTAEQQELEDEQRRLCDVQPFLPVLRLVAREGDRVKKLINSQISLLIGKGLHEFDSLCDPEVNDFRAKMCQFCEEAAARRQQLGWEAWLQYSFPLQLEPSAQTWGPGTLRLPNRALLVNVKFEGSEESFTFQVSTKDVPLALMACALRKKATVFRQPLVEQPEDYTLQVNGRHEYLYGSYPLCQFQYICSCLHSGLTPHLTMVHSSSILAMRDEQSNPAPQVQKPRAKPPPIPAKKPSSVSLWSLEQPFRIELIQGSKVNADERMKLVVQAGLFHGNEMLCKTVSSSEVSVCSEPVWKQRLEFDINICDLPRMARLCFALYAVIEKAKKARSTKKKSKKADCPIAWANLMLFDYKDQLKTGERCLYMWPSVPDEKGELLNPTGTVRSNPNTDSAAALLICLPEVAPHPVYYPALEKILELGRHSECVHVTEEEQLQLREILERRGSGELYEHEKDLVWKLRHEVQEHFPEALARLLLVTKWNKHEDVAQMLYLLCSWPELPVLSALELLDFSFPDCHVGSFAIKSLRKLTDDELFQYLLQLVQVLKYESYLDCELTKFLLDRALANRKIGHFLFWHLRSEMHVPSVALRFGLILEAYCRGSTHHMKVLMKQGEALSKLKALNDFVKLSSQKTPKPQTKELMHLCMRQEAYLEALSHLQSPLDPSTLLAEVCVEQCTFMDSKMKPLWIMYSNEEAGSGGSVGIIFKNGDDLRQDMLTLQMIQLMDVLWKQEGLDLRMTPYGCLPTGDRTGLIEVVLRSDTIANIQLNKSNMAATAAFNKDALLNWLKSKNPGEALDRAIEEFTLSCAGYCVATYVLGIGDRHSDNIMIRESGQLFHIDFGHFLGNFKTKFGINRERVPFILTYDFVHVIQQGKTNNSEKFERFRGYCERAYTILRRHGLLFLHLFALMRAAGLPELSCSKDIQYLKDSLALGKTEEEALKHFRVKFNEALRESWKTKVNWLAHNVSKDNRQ
# kinases (Homo sapiens, UniProt P68400), sequence (P68400 whole entry): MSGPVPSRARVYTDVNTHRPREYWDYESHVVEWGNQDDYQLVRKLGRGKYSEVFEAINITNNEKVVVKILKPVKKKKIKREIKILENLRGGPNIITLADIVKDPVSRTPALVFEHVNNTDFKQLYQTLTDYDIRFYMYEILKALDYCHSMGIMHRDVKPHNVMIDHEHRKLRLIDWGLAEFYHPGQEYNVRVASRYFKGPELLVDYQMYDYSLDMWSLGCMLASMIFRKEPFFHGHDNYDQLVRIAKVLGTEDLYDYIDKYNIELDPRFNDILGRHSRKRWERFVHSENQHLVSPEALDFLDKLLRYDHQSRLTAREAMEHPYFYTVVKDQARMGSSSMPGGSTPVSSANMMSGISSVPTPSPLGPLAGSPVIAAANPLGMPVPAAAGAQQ
SMILES,Mean Inhib (%) (kinases [1]),Mean Inhib (%) (kinases [2]),Mean Inhib (%) (kinases [3]),Mean Inhib (%) (kinases [4]),Mean Inhib (%) (kinases [5]),Mean Inhib (%) (kinases [6]),Mean Inhib (%) (kinases [7]),Mean Inhib (%) (kinases [8]),Mean Inhib (%) (kinases [9]),Mean Inhib (%) (kinases [10]),Mean Inhib (%) (kinases [11]),Mean Inhib (%) (kinases [12]),Mean Inhib (%) (kinases [13]),Mean Inhib (%) (kinases [14]; [29]),Mean Inhib (%) (kinases [14]; [30]),Mean Inhib (%) (kinases [15]),Mean Inhib (%) (kinases [16]; [31]),Mean Inhib (%) (kinases [16]; [32]),Mean Inhib (%) (kinases [16]; [33]),Mean Inhib (%) (kinases [16]; [34]),other results
Cc1ccc(NC(=O)c2ccnc(N3CCOCC3)c2)cc1Nc1ccnc(N2CC(C)OC(C)C2)n1 (stereo not shown) [compound 3],1.0%,6.3%,3.3%,19.8%,0.9%,8.4%,8.9%,6.1%,8.1%,3.0%,1.4%,0.5%,6.1%,−3.2%,20.0%,13.1%,5.6%,−10.3%,0.0%,0.3%,Mean Inhib (%) (kinases [16]; [35]): 12.2%; Mean Inhib (%) (kinases [16]; [36]): 20.8%; Mean Inhib (%) (kinases [17]): −1.9%; Mean Inhib (%) (kinases [18]): 2.4%; Mean Inhib (%) (kinases [19]): 2.2%; Mean Inhib (%) (kinases [20]): −3.1%; Mean Inhib (%) (kinases [21]): −2.6%; Mean Inhib (%) (kinases [22]): 7.6%; Mean Inhib (%) (kinases [23]): 5.2%; Mean Inhib (%) (kinases [24]; CDK11(Inactive) FRET-Lantha SP): −0.2%; Mean Inhib (%) (kinases [24]; CDK11 Cyclin C FRET-Lantha SP): 2.1%; Mean Inhib (%) (kinases [25]): 14.1%; Mean Inhib (%) (kinases [26]): 0.3%; Mean Inhib (%) (kinases [27]): 6.2%; Mean Inhib (%) (kinases [28]): −7.8%
Cc1cc(Oc2ccnc(Nc3ccc(S(N)(=O)=O)cc3)c2)c(-c2ccccn2)nc1C [compound 65],23.8%,14.8%,−11.8%,17.2%,7.4%,1.0%,4.7%,58.7%,0.0%,9.6%,−2.6%,22.2%,2.4%,−0.5%,17.3%,5.7%,1.3%,−1.2%,2.3%,−0.6%,Mean Inhib (%) (kinases [16]; [35]): −0.5%; Mean Inhib (%) (kinases [16]; [36]): −2.4%; Mean Inhib (%) (kinases [17]): 14.1%; Mean Inhib (%) (kinases [18]): 0.2%; Mean Inhib (%) (kinases [19]): −0.5%; Mean Inhib (%) (kinases [20]): 3.7%; Mean Inhib (%) (kinases [21]): 5.1%; Mean Inhib (%) (kinases [22]): 2.9%; Mean Inhib (%) (kinases [23]): 14.8%; Mean Inhib (%) (kinases [24]; CDK11(Inactive) FRET-Lantha SP): 1.0%; CDK11 Cyclin C FRET-Lantha SP Mean Mean Inhib (%) (kinases [24]; CDK11 Cyclin C): 3.8%; Mean Inhib (%) (kinases [25]): 9.4%; Mean Inhib (%) (kinases [26]): 1.7%; Mean Inhib (%) (kinases [27]): 1.5%; Mean Inhib (%) (kinases [28]): 38.0%
